In the experiment the test system is test plant species. Briefly: Post-emergent herbicidal activity test (greenhouse, foliar spray, visual growth reduction). It counts as in vivo. The note with it: post-emergence, 336 h, 140 g ai/ha, 14 days after application. The method in brief:
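Visual scoring 14 d after treatment (0 = no injury, 100 = complete control) against nontreated and solvent-blank plants gave percent growth reduction. Foliar application used a track sprayer delivering 187 L/ha to seedlings at first or second true leaf stage, grown at 23–29 °C day, ~15 h photoperiod.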

[1] abbreviates: ALOMY: blackgrass (Alopecurus myosuroides), read-out: Visual Growth Reduction (%) 14 Days After Application, ALOMY.
[2] abbreviates: AMARE: redroot pigweed (Amaranthus retroflexus), read-out: Visual Growth Reduction (%) 14 Days After Application, AMARE.
The mark [3] stands for this setting: AVEFA: wild oat (Avena fatua), read-out: Visual Growth Reduction (%) 14 Days After Application, AVEFA.
The mark [4] stands for this setting: CHEAL: lambsquarters (Chenopodium album), read-out: Visual Growth Reduction (%) 14 Days After Application, CHEAL.
Setting [5] is: CIRAR: canada thistle (Cirsium arvense), read-out: Visual Growth Reduction (%) 14 Days After Application, CIRAR.
[6] abbreviates: DIGSA: crabgrass (Digitaria sanguinalis), read-out: Visual Growth Reduction (%) 14 Days After Application, DIGSA.
The mark [7] stands for this setting: ECHCG: barnyardgrass (Echinochloa crus-galli), read-out: Visual Growth Reduction (%) 14 Days After Application, ECHCG.
[8] abbreviates: IPOHE: ivy-leaf morning glory (Ipomoea hederacea), read-out: Visual Growth Reduction (%) 14 Days After Application, IPOHE.
The mark [9] stands for this setting: KCHSC: kochia (Bassia scoparia), read-out: Visual Growth Reduction (%) 14 Days After Application, KCHSC.
Where [10] appears, read: ORYSA: rice (Oryza sativa), read-out: Visual Growth Reduction (%) 14 Days After Application, ORYSA.
The mark [11] stands for this setting: SETFA: giant foxtail (Setaria faberi), read-out: Visual Growth Reduction (%) 14 Days After Application, SETFA.
[12] abbreviates: SORVU: grain sorghum (Sorghum vulgare), read-out: Visual Growth Reduction (%) 14 Days After Application, SORVU.
[13] abbreviates: STEME: common chickweed (Stellaria media), read-out: Visual Growth Reduction (%) 14 Days After Application, STEME.
[14] abbreviates: TRZAS: wheat, spring (Triticum aestivum), read-out: Visual Growth Reduction (%) 14 Days After Application, TRZAS.
[15] abbreviates: CYPES: yellow nutsedge (Cyperus esculentus), read-out: Visual Growth Reduction (%) 14 Days After Application, CYPES.

Like-named read-outs stand apart in the source and are kept apart here.

`O=C(O)c1nc(-c2cc3c(cc2Cl)OCO3)ccc1Cl` [F148, 3-Chloro-6-(6-chlorobenzo[d][1,3]dioxol-5-yl)picolinic acid]: the pest or weed control at 140 g/ha under setting [1] lay in the range of 0 to 29%; the pest or weed control at 140 g/ha under setting [2] is 75 to 84%; the pest or weed control at 140 g/ha under setting [3] fell in the range of 0 to 29%; the pest or weed control at 140 g/ha under setting [4] was in the range of 75 to 84%; the pest or weed control at 140 g/ha under setting [5] fell in the range of 0 to 29%; the pest or weed control at 140 g/ha under setting [6] was in the range of 0 to 29%. Further, the pest or weed control at 140 g/ha lay within 0 to 29% under setting [7]; 30 to 44% under setting [8]; 0 to 29% under setting [9]; 0 to 29% under setting [10]; 0 to 29% under setting [11]; 0 to 29% under setting [12]. The pest or weed control at 140 g/ha was 0 to 29% under setting [13] and 0 to 29% under setting [14].

With `COC(=O)c1nc(-c2ccc(Cl)c(N(C)C)c2)ccc1Cl` [F149, Methyl 3-chloro-6-(4-chloro-3-(dimethylamino)phenyl)picolinate], the pest or weed control at 140 g/ha runs as follows: under setting [1], 0 to 29%; under setting [2], 75 to 84%; under setting [3], 0 to 29%; under setting [4], 95 to 100%; under setting [5], 60 to 74%; under setting [15], 0 to 29%. Also, the pest or weed control at 140 g/ha runs as follows: under setting [6], 0 to 29%; under setting [7], 0 to 29%; under setting [8], 30 to 44%; under setting [9], 75 to 84%; under setting [10], 0 to 29%; under setting [11], 0 to 29%. Also, the pest or weed control at 140 g/ha by setting is: under setting [12], 0 to 29%; under setting [13], 0 to 29%; under setting [14], 0 to 29%.

As to `COC(=O)c1nc(-c2cc3c(cc2Cl)OCO3)c(F)cc1Cl` [F150, Methyl 3-chloro-6-(6-chlorobenzo[d] [1,3]oxol-5-yl)-5-fluoropicolinate], the pest or weed control at 140 g/ha under setting [1] was in the range of 0 to 29%; the pest or weed control at 140 g/ha under setting [2] is 75 to 84%; the pest or weed control at 140 g/ha under setting [3] fell in the range of 0 to 29%; the pest or weed control at 140 g/ha under setting [4] was 75 to 84%; the pest or weed control at 140 g/ha under setting [5] was in the range of 85 to 94%; the pest or weed control at 140 g/ha under setting [15] is 0 to 29%. The pest or weed control at 140 g/ha under setting [6] lay within 0 to 29%; the pest or weed control at 140 g/ha under setting [7] lay within 0 to 29%; the pest or weed control at 140 g/ha under setting [8] fell in the range of 85 to 94%; the pest or weed control at 140 g/ha under setting [9] is 45 to 59%; the pest or weed control at 140 g/ha under setting [10] lay in the range of 0 to 29%; the pest or weed control at 140 g/ha under setting [11] was 30 to 44%. In addition, the pest or weed control at 140 g/ha is, setting by setting: under setting [12], 0 to 29%; under setting [13], 0 to 29%; under setting [14], 0 to 29%.

`COC(=O)c1nc(-c2cc(Br)c(C(F)(F)F)cc2Cl)ccc1Cl` [F151, Methyl 6-(5-bromo-2-chloro-4-(trifluoromethyl)phenyl)-3-chloropicolinate]: the pest or weed control at 140 g/ha reads like this: under setting [1], 0 to 29%; under setting [2], 95 to 100%; under setting [3], 0 to 29%; under setting [4], 95 to 100%; under setting [5], 45 to 59%; under setting [15], 0 to 29%. The pest or weed control at 140 g/ha under setting [6] was 0 to 29%; the pest or weed control at 140 g/ha under setting [7] lay in the range of 0 to 29%; the pest or weed control at 140 g/ha under setting [8] was in the range of 95 to 100%; the pest or weed control at 140 g/ha under setting [9] lay within 45 to 59%; the pest or weed control at 140 g/ha under setting [10] lay in the range of 0 to 29%; the pest or weed control at 140 g/ha under setting [11] was in the range of 0 to 29%. The pest or weed control at 140 g/ha under setting [12] is 95 to 100%, the pest or weed control at 140 g/ha under setting [13] is 0 to 29% and the pest or weed control at 140 g/ha under setting [14] lay in the range of 0 to 29%.

Regarding `COC(=O)c1nc(-c2cc(Br)c(C(F)(F)F)cc2Cl)c(F)cc1Cl` [F152, Methyl 6-(5-bromo-2-chloro-4-(trifluoromethyl)phenyl)-3-chloro-5-fluoropicolinate], the pest or weed control at 140 g/ha was 0 to 29% under setting [1]; 95 to 100% under setting [2]; 0 to 29% under setting [3]; 95 to 100% under setting [4]; 45 to 59% under setting [5]; 0 to 29% under setting [15]. Also, the pest or weed control at 140 g/ha is, setting by setting: under setting [6], 60 to 74%; under setting [7], 0 to 29%; under setting [8], 95 to 100%; under setting [9], 85 to 94%; under setting [10], 0 to 29%; under setting [11], 0 to 29%. Moreover, the pest or weed control at 140 g/ha was 95 to 100% under setting [12], 0 to 29% under setting [13] and 0 to 29% under setting [14].

Turning to `COC(=O)c1nc(-c2cc3c(cc2Cl)OC(F)(F)O3)c(F)cc1Cl` [F153, Methyl 3-chloro-6-(6-chloro-2,2-difluorobenzo[d] [1,3]dioxol-5-yl)-5-fluoropicolinate], the pest or weed control at 140 g/ha is 60 to 74% under setting [1]; 95 to 100% under setting [2]; 60 to 74% under setting [3]; 85 to 94% under setting [4]; 85 to 94% under setting [5]; 0 to 29% under setting [15]. Moreover, the pest or weed control at 140 g/ha by setting is: under setting [6], 85 to 94%; under setting [7], 75 to 84%; under setting [8], 95 to 100%; under setting [9], 85 to 94%; under setting [10], 0 to 29%; under setting [11], 85 to 94%. For the same compound, the pest or weed control at 140 g/ha by setting is: under setting [12], 95 to 100%; under setting [13], 0 to 29%; under setting [14], 30 to 44%.

On to `COC(=O)c1nc(-c2cc3c(cc2Cl)OC(F)(F)O3)c(Cl)cc1Cl` [F154, Methyl 3,5-dichloro-6-(6-chloro-2,2-difluorobenzo[d] [1,3]dioxol-5-yl)picolinate], for which the pest or weed control at 140 g/ha was in the range of 0 to 29% under setting [1]; 85 to 94% under setting [2]; 0 to 29% under setting [3]; 85 to 94% under setting [4]; 0 to 29% under setting [5]; 0 to 29% under setting [15]. Moreover, the pest or weed control at 140 g/ha reads like this: under setting [6], 60 to 74%; under setting [7], 0 to 29%; under setting [8], 95 to 100%; under setting [9], 0 to 29%; under setting [10], 0 to 29%; under setting [11], 45 to 59%. The pest or weed control at 140 g/ha is, setting by setting: under setting [12], 60 to 74%; under setting [13], 0 to 29%; under setting [14], 0 to 29%.

As for `COC(=O)c1nc(-c2cc3c(cc2Cl)OCO3)c(Cl)cc1Cl` [F155, Methyl 3,5-dichloro-6-(6-chlorobenzo[d] [1,3]dioxol-5-yl)picolinate], the pest or weed control at 140 g/ha runs as follows: under setting [1], 0 to 29%; under setting [2], 60 to 74%; under setting [3], 0 to 29%; under setting [4], 75 to 84%; under setting [5], 0 to 29%; under setting [15], 0 to 29%. For the same compound, the pest or weed control at 140 g/ha runs as follows: under setting [6], 0 to 29%; under setting [7], 0 to 29%; under setting [8], 0 to 29%; under setting [9], 0 to 29%; under setting [10], 0 to 29%; under setting [11], 0 to 29%. The pest or weed control at 140 g/ha lay within 0 to 29% under setting [12], 0 to 29% under setting [13] and 0 to 29% under setting [14].

These data come from patent publication US20230017045A1, “PYRIDINE AND PYRIMIDINE CARBOXYLATE HERBICIDES AND METHODS OF USE THEREOF” (Dow AgroSciences LLC, priority 2017, published 2023).
